Assay [1] has as its system Phytophthora infestans. Type of assay: in vivo. The settings on record: potato Bintje, FIG. 4.
Assay [2] deals with Plasmopara viticola. The assay is described as follows: In vivo greenhouse test of ternary composition against downy mildew of grapevine, treatment 24 h after contamination (Example 12). The settings on record: grapevine Chardonnay, compound (I) alone, FIG. 9.
Assay [3] relates to Uncinula necator. The assay is described as follows: In vivo greenhouse test against powdery mildew of grapevine (Example 10). The following applies: FIG. 7. How it is done:
(§1) In Vivo Greenhouse Test of a Composition Comprising Compound (I) and Compound (IIF) (Spiroxamine) Against Powdery Mildew of Grapevine (Uncinula necator):
A suspension of 60 mg comprising compound (I) in a liquid mixture consisting of 0.3 ml of a surfactant (oleate of polyoxyethylenated derivative of sorbitan) diluted to 10% in water and 60 ml of water is prepared.
An emulsifiable concentrate containing 500 g/l of spiroxamine is used.
Dilute suspensions corresponding to a spraying volume of 250 l of spraying liquid per ha are prepared from these compositions by dilution with water.
These 2 liquids are mixed together so as to obtain a compound (I)/spiroxamine ratio equal to 0.33:1:3.
Grapevine plants (Chardonnay variety) are cultivated in pots. When these plants are 2 months old, they are treated by spraying with a liquid comprising one of the compounds (I) and (IIF), either individually or as a mixture in one of the ratios indicated above.
After 24 hours, the grapevine leaves are contaminated by dusting them with powdery mildew spores (Uncinula necator) obtained from naturally contaminated leaves.
After this contamination, the treated and contaminated grapevine plants are placed for 15 days at 20° C. at a relative humidity of about 70%. […]
(§2) The efficacy of the treatment (expressed in %) is calculated according to the so-called Abbott formula. […]

The test system of assay [4] is Phytophthora infestans. Type of assay: in vivo. The following applies: potato Bintje, FIG. 1.
The subject of assay [5] is Plasmopara viticola. The assay is described as follows: In vivo greenhouse test on downy mildew of grapevine, preventive treatment at 4 days (Example 5). The following applies: grapevine Chardonnay, FIG. 2. How it is done: In Vivo Greenhouse Test of the Combination of Compound (I) with Compound (IIA), Propamocarb, on Plasmopara viticola (Downy Mildew of Grapevine) by Preventive Treatment at 4 Days:
A soluble concentrate containing 722 g/l of propamocarb and a 70% dispersible granule of compound (I) are used.
Dilute suspensions corresponding to a spraying volume of 500 l of spraying liquid per ha are prepared from these compositions by dilution with water.
These 2 liquids are mixed together so as to obtain a ratio: compound (I)/propamocarb, equal to: 0.015−0.125−0.5.
Cuttings of grapevine (Vitis vinifera), Chardonnay variety, are cultivated in pots. When these plants are 2 months old, they are treated by spraying with the above liquids, taken individually or as a mixture.
After 4 days, each plant is contaminated by spraying with an aqueous suspension of spores of Plasmopara viticola obtained from sporulated leaves contaminated 7 days beforehand. […]
The results are read 7 days after the contamination, by comparison with the control plants, that is to say untreated but contaminated plants.
The surface area of leaves showing a whitish appearance on their underside, corresponding to attack by the fungus, is assessed visually and the degree of attack is obtained by dividing by the total foliar surface.
The efficacy is then calculated using the Abbott formula and using the result on the control plant. […]

Assay [6] concerns Phytophthora infestans. Type of assay: in vivo. The following applies: potato Bintje lamellae, preventive 4 days, FIG. 3.
Another assay concerns Botrytis cinerea. In words: In vivo greenhouse test against grey rot of grapevine (Example 8). The settings on record: FIG. 5. As for the experimental part: In Vivo Greenhouse Test of a Composition Comprising Compound (I) and Compound (IIC) (Cyprodinil) Against Grey Rot of Grapevine (Botrytis cinerea):
(§3) A 70% dispersible granule of compound (I) and a 75% dispersible granule of cyprodinil are used.
(§4) Dilute suspensions corresponding to a spraying volume of 1000 l of spraying liquid per ha are prepared from these compositions by dilution with water.
These 2 liquids are mixed together so as to obtain a compound (I)/cyprodinil ratio equal to 0.2.
Grapevine plants (Chardonnay variety) are cultivated in pots. When these plants are 2 months old, they are treated by spraying with a liquid comprising one of the compounds (I) and (IIC), either individually or as a mixture in the ratio indicated above.
After 24 hours, leaves are cut off the treated plants, placed on moistened filter paper in a Petri dish and are contaminated by applying 10 drops of an aqueous suspension of spores (containing 150,000 sp/cm^3) of Botrytis cinerea. […]
For this, the number of drops of Botrytis cinerea suspension from which a grey mark, corresponding to attack by the phytopathogenic fungus, developed is counted for a grapevine leaf. […]
as §2

The test system of assay [7] is Uncinula necator. The assay is described as follows: In vivo greenhouse test against powdery mildew of grapevine, read 22 days after contamination (Example 11). The settings on record: FIG. 8.
Excerpt: as §1
Example 10 is repeated, setting the compound (I)/spiroxamine ratio to 0.11:0.33 and 1 and observing the results 22 days after contamination.

The test system of a further assay is Alternaria brassicae. The assay is described as follows: In vivo greenhouse test against Alternaria rot in radish (Example 9). The settings on record: radish Pernot plantules, contamination 24 hours after treatment, FIG. 6. How it is done: In Vivo Greenhouse Test of a Composition Comprising Compound (I) and Compound (IIC) (Cyprodinil) Against Alternaria Rot in Radish (Alternaria brassicae):
as §3, §4
These 2 liquids are mixed together so as to obtain a compound (I)/cyprodinil ratio equal to 0.2−0.5−1.
Radish plantules (Pernot variety) are cultivated in pots. When these plantules have reached the 2-leaf cotyledon stage, they are treated by spraying with a liquid comprising compounds (I) and (IIC), either individually or as a mixture in the ratios indicated above.
24 hours after treatment, contamination is carried out by spraying with an aqueous suspension of spores (containing 40,000 sp/cm^3) of Alternaria brassicae.
After this contamination, the treated and contaminated plantules are placed for 10 days at about 20° C. in an atmosphere of saturated humidity. […]
For this, the percentage of attack of the cotyledon leaves by the fungus is assessed visually, the said attack being recognizable by brown necrosis marks. From the degree of attack thus obtained (expressed in %), the efficacy is calculated according to the Abbott formula with reference to the degree of attack of the control. […]

[8] abbreviates: contamination 4 days after treatment.

The text below walks through data of patent US6762173B2 (priority 1997, dated 2004).

Where two headings read alike, the source gives them in different places.

Take `CSC(=O)c1cccc2nnsc12` [CGA 245704, S-methyl ester of 1,2,3-benzothiadiazole-7-carbothioic acid]: the “efficacy when applied alone” value in the assay on Phytophthora infestans [1] (under the test conditions) is “no efficacy”.
Consider `CSC1=N[C@@](C)(c2ccccc2)C(=O)N1Nc1ccccc1` [compound (I), (4S)-4-methyl-2-methylthio-4-phenyl-1-phenyl-amino-2-imidazolin-5-one], for which the “dose alone which needs to be applied to obtain 70% destruction of the parasite” value amounted to 36 mg/L in the assay with Plasmopara viticola [2] and 167 mg/L in the assay with Alternaria brassicae. Besides, the “efficacy when applied alone” value in the assay on Uncinula necator [3] (grapevine, under the test conditions) is “no efficacy”; with Botrytis cinerea (grapevine leaves, under the test conditions), “no efficacy”; with Uncinula necator [7] (grapevine, under the test conditions, 22 days), “no efficacy”. Besides, the results for the “dose alone which needs to be applied to destroy 70% of the parasite” value in the assay with Phytophthora infestans [4] (setting [8]) and in the assay on Phytophthora infestans [1] (setting [8]) were 36 mg/L and 177 mg/L, respectively. For the same molecule, the “dose alone which needs to be applied to obtain 90% efficacy” value in the assay with Plasmopara viticola [5] (preventive 4 days) came out at 8.2 mg/L. In addition, the “dose alone which needs to be applied to obtain 90% destruction of the parasite” value in the assay with Phytophthora infestans [6] is 8.7 mg/L.
`Cc1cc(C2CC2)nc(Nc2ccccc2)n1` [cyprodinil, 2-phenylamino-4-cyclopropyl-6-methyl-pyrimidine]: in the assay on Botrytis cinerea (grapevine Chardonnay cut leaves, contamination 24 hours after treatment), the “dose alone which needs to be applied to destroy 90% of the parasite” value came out at 73 mg/L. In the assay on Alternaria brassicae, the “dose alone which needs to be applied to obtain 70% destruction of the parasite” value turned out to be 178 mg/L.
With `CCCOC(=O)NCCCN(C)C` [propamocarb, propyl 3-(dimethylamino)propyl carbamate], in the assay on Plasmopara viticola [5] (under the test conditions), the “efficacy when applied alone” value was “no efficacy”. In the assay with Phytophthora infestans [6], the “dose alone which needs to be applied to obtain 90% destruction of the parasite” value is 553 mg/L.
As to `O=C([O-])c1ccccc1O.[Na+]` [sodium salt of salicylic acid], the “efficacy when applied alone” value with Phytophthora infestans [4] (under the test conditions) is “no efficacy”.
In the case of `CCCN(CC)CC1COC2(CCC(C(C)(C)C)CC2)O1` (centres unmarked) [spiroxamine, 8-t-butyl-2-(N-ethyl-N-n-propylamino)methyl-1,4-dioxaspiro[4.5]decane], the “dose alone which needs to be applied to destroy 70% of the parasite” value is 6.6 g/ha in the assay on Uncinula necator [3] (grapevine Chardonnay, read 15 days after contamination) and 61 g/ha in the assay with Uncinula necator [7] (grapevine Chardonnay, read 22 days after contamination).
